≈ marks a conversion by molar mass, not a printed value.
Columns and labels:
[1] = cited from earlier work; for dissolution of complex vs. physical mixture: β-cyclodextrin complex vs. physical mixture
[2] = Release of prednisolone and SBE7 β-CD from uncoated controlled release tablet cores; type: physicochemical; details: for effect of HPMC viscosity 15,000 to 100,000 cps on release: 5% PD
Procedure: The above ingredients are used to make a 300 mg tablet core having a controlled release profile. The ingredients were blended by hand and individual tablets were prepared on a carver press under a pressure of 1 ton for 7 seconds. The tablets were prepared using a 5/16" standard cup concave tooling. The determination of the release profile by dissolution was conducted according to USP method 2 at 37°, 100 rpm with paddles in a 900 ml water bath. The amounts of prednisolone (PD) released was determined by HPLC, and the amount of SBE7 -βCD released was determined by TNS as described herein.

[3] = osmotic pump tablet with (SBE)7M -β-CD; cited from earlier work
physchem = test: physchem
Procedure: (SBE)7 -β-CD (0-0.1 M) solutions were made in different buffer solutions at pH values ranging from 4.0 to 7.0 (citrate for 4 & 5; phosphate for 6 &7). […] The solutions were centrifuged for 10 min. at 2500 rpm. 20 μl of the supernatant was carefully sampled using a 100 μl gas-tight Hamilton Syringe (Hamilton, Nev.), diluted with mobile phase and analyzed by HPLC. The solubility data was then used to determine the binding constant using the method of Higuchi and Connors for AL-type phase behavior.

pKa of dipyridamole = type: physicochemical; details: basic drug
[4] = In vitro release of dipyridamole from coated tablets (USP apparatus II); type: physicochemical
Procedure: The sample volume was 20 μl and the UV detection wavelength was […] (Shimadzu 6A, Shimadzu, Japan). A mobile phase consisting of 70% methanol and 30% ammonium phosphate buffer (pH 5.0) was passed through the column at a flow rate of 1.5 ml/min. (SBE)7m -β-CD was detected by using a fluorimetric assay, 0.2 ml of a 1 mM solution of 2,6-toluidino-naphthalene-sulfonate to 0.8 ml of the sample. This solution was then excited at 325 nm and the emitted fluorescence detected at 455 nm using a Perkin 25 Elmer (Perkin-Elmer, CT) Fluorescence detector.
The ground physical mixture was then sieved through a 200 mesh (75 μm) screen. This process was repeated twice. This mixture was always stored in a desiccator when not used.
The dissolution die consists of a cylindrical stainless steel center-piece,a stainless steel platform, a stainless steel top cover, two Teflon sheets (top and bottom) and Teflon inserts. The cylindrical center-piece has a hole (radius=7.5 mm ) at the center in which the tablet is compressed. Both, the stainless steel top cover and top Teflon sheet have holes of same radius at the center. The center-piece was inverted and screwed onto the platform. […] The tablet core was compressed with a force of one ton for one minute using Carver press (Fred Carver Inc., NJ). The punch was carefully removed from the center-piece.
™ coatings were made by dissolving 5% (w/w) of […]™ R or S (Huls America, NJ), 5% of urea (SIGMA, MO) or polyethylene glycol (PEG 3350, SIGMA, MO) and 0.75% of triethyl Citrate (TEC, SIGMA, MO) in 89.25% ethanol. This was carried out until a clear solution was obtained. Cellulose acetate (CA-320S7 Eastman Chemical Co., TN) and hydroxypropyl methylcellulose phthalate (HPMCP, Eastman Chemical Co., TN) polymeric solutions were made by dissolving 5% of polymers and 1% of TEC in 94% of solvent containing equal amounts of methylene chloride and methanol. The ratio of CA to HPMCP was varied from 50:50 to 75:25 but the total amount of polymer was always maintained at 5%. The dissolution was carried out until clear solutions were obtained.
This coating solution was then air sprayed directly on the tablet surface under constant air flow (approx. 70° C.). The coated tablets were dried additionally for a period of 15 minutes under the same air flow. The tablets were additionally dried for a period of 12-16 hr. at room temperature. The thickness of the membrane was assumed to be the difference of thickness of the tablet after and before coating. The thickness measurements were carried out using a Screw-gauge micrometer.
The release studies for tablets coated with Eudragit L and CA: HPMCP were conducted by placing the dissolution die in a USP dissolution apparatus II (Vanderkamp 600, VanKel Industries Inc.) containing 450 ml of HCl (pH 1.5, 37° C. and 100 r.p.m.). […] 1.5 ml samples were collected periodically and equal amounts of dissolution medium was returned to the dissolution vessel. For the CA: HPMCP coated tablet, 100% release was determined by removing the membrane from the die and allowing the drug dissolution to be complete. The release experiments for tablets coated with Eudragit were conducted similarly in 450 ml of HCl for the first 2 hours, then placed in a phosphate buffer (pH 6.4) for additional 5 hr. and then placed in a phosphate buffer (pH 7.2). The release conditions and procedures were as described above.
0.5 ml of the sample was diluted by half in the mobile phase and the diluted samples were then analyzed using HPLC assay to determine drug concentrations as described in a later section.

[5] = as above; type: physicochemical; details: for release of DP without SAE-CD: core DP, citric acid, fructose-lactose
[6] = in words; cited from earlier work
[7] = gels with methyl-β-cyclodextrin; cited from earlier work

For `CC(=O)Nc1ccc(O)cc1` [acetaminophen], the “dissolution of complex vs. physical mixture” value [1] is listed as “significantly better, dissolution profile”.
In the case of `CCC1(c2ccccc2)C(=O)NC(=O)NC1=O` [phenobarbitone], the “controlled dissolution, preformed complex vs. physical mixture” value ([1]; β-cyclodextrin) is given as “preformed complex performs substantially better than the physical mixture”.
In the case of `CN1C(C(=O)Nc2ccccn2)=C(O)c2ccccc2S1(=O)=O` [piroxicam], the “dissolution of complex vs. physical mixture” value [1] is given as “significantly better, dissolution profile”.
For `N=C(N)NCC1CCC(C(=O)Oc2ccccc2C(=O)OCc2ccccc2)CC1` (centres unmarked) [benexate], the “solubility of complex vs. physical mixture” value ([1]; cyclodextrin complex vs. physical mixture or neat) is listed as “significantly increased solubility”.
For `COc1ccc2c(c1)c(CC(=O)O)c(C)n2C(=O)c1ccc(Cl)cc1` [indomethacin], the “dissolution of complex vs. physical mixture” value [1] is listed as “significantly better, dissolution profile”.
With `C[C@]12C=CC(=O)C=C1CC[C@@H]1[C@@H]2[C@@H](O)C[C@@]2(C)[C@H]1CC[C@]2(O)C(=O)CO` [prednisolone] the “effect of HPMC viscosity 15,000 to 100,000 cps on release” value ([2]; 35% SAE-CD, 50% HPMC, 10% lactose, FIG. 20) was “substantially independent of the viscosity of the HPMC”, the “effect of HPMC viscosity 15,000 to 100,000 cps on release” value ([2]; 70% SAE-CD, 25% HPMC, FIG. 19) was “the rate of delivery of the PD and the overall amount of PD delivered increases” and the “effect of decreasing SAE-CD (increasing lactose) on delivery” value ([2]; PD 5%, HPMC approximately 25%, FIG. 17) was “the rate of delivery of the PD and the overall amount of PD delivered decrease”. For the same compound, the “effect of increasing release rate modifier ratio on release rate” value ([2]; PD 5%, SAE-CD 35%, HPMC 25% to 50%, FIG. 18) was “the release rate of the drug is decreased”, the PD released ([2]; control HPMC K100M, no cyclodextrin, eleven hours, FIG. 19) was “approximately 50 % by weight” and the PD released ([2]; control HPMC K100M, no cyclodextrin, six hours, FIG. 19) was “approximately 30 % by weight”. For the same compound, the PD released ([2]; no cyclodextrin, HPMC, after eleven hours, FIG. 16) was “approximately 50 % by weight”, the drug released ([2]; release rate modifier:drug approximately 5:1, 12 hours, FIG. 18) was 75-90% and the drug released ([2]; release rate modifier:drug approximately 5:1, about six hours, FIG. 18) was 65-75%. For the same compound, the drug released ([2]; release rate modifier:drug approximately 10:1, 12 hours, FIG. 18) was 55-60%, the drug released ([2]; release rate modifier:drug approximately 10:1, about six hours, FIG. 18) was 40-50% and the PD released ([2]; with SAE-CD, HPMC, approximately six hours, FIG. 16) was “greater than 90%”. For the same compound, the PD released ([2]; with SAE-CD, HPMC, eleven hours, FIG. 16) was “substantially complete delivery of the drug” and the release profile [3] was “sustained release profile is provided by the osmotic pump tablet so long as the semipermeable membrane is present”.
In the case of `OCCN(CCO)c1nc(N2CCCCC2)c2nc(N(CCO)CCO)nc(N3CCCCC3)c2n1` [dipyridamole], the solubility at 24 h (physchem; citrate buffer with sbe7 β-cd, pH 4) is reported as 16000 µg/mL (≈ 31700 µM), the solubility at 24 h (physchem; citrate buffer, pH 4, aqueous buffer) is reported as 1990 µg/mL (≈ 3940 µM) and the solubility at 24 h (physchem; phosphate buffer with sbe7 β-cd, pH 7) is reported as 504 µg/mL (≈ 999 µM). It also gave a solubility at 24 h (physchem; phosphate buffer, pH 7, aqueous buffer) of 3.56 µg/mL (≈ 7.05 µM), a solubility (physchem; water) of 3.6 µg/mL (≈ 7.13 µM) and a pKa (pKa of dipyridamole) of 6.28. For the same compound, the type of release ([4]; 90 μm film, CA:HPMCP 1:1, FIG. 14) was “delayed release”, the type of release ([4]; 105 μm film, CA:HPMCP 6:4, FIG. 14) was “combined delayed and controlled release” and the “effect of film thickness on release profile” value ([4]; CA/HPMCP film 90 μm to 170 μm, FIG. 13) was “did not appear to substantially affect the release profile”. For the same compound, the type of release ([4]; CA:HPMCP 1:1 film, FIG. 12) was “combined delayed and controlled release”, the “effect of film thickness on release profile” value ([4]; EUDRAGIT-L/urea film, physical mixture core, FIG. 10) was “independent of film thickness but dependent upon solution pH” and the “pH at which DP is released” value ([4]; EUDRAGIT-S and urea film, FIG. 11) was ~7.2. For the same compound, the “pH at which DP is released” value ([4]; comparison (EUDRAGIT-L and urea film)) was “about 6.8”, the “release profile, SBE7 β-CD vs. DP” value ([5]; EUDRAGIT-L film 150 μm, pH raised from 1.5 to 6.8 after two hours, FIG. 9) was “substantially the same release profile” and the release delay ([5]; EUDRAGIT-L film, pH 1.5 to 6.8, FIG. 9) was “two hour delay”. The “release of DP without SAE-CD” value ([5]; CA:HPMCP (50:50) 120 μm film) was “no release of DP was obtained”, the “release of DP without SAE-CD” value ([5]; EUDRAGIT-L and urea (50:50) 120 μm film) was “incomplete release of DP was observed” and the bioavailability [6] was “low and variable bioavailability”.
In the case of `O=C1CN=C(c2ccccc2Cl)c2cc([N+](=O)[O-])ccc2N1` [clonazepam], the “flux rate of clonazepam” value [7] is given as “improves the flux rate”.
For `CC(=O)CC(c1ccccc1)c1c(O)c2ccccc2oc1=O` (centres unmarked) [warfarin], the “dissolution of complex vs. physical mixture” value [1] is listed as “significantly better, dissolution profile”.
For `Cc1cccc(N(C)C(=S)Oc2ccc3ccccc3c2)c1` [tolnaftate], the “dissolution of complex vs. physical mixture” value [1] is given as “improved dissolution over the physical mixture or free drug”.
For `CN1C(=O)C(O)N=C(c2ccccc2)c2cc(Cl)ccc21` (centres unmarked) [temazepam], the “dissolution of complex vs. physical mixture” value [1] is given as “In only one of several examples did Martini et al. obtain a physical mixture formulation having a dissolution profile comparable to that of the preformed complex formulation”.
